Where a name gives a salt, the structure may show the parent alone. Read-outs that look alike come from different tables or passages of the source. Where a SMILES comes first, the peptide text is derived from it. [ ]: non-standard residue; d: D form. dNMeL = CN[C@H](CC(C)C)C(=O)O; Hiv = CC(C)[C@H](O)C(=O)O
Assays:
[1] = test system: P. falciparum 3D7 parasites; experiment: P. falciparum growth inhibition assay, 1-cycle (72 h treatment), SYBR DNA staining (library screen at 2 μg/mL and dose-response); assay type: cell-based, Plasmodium falciparum
[2] = test system: P. falciparum 3D7 parasites; experiment: P. falciparum growth inhibition assay, 2-cycle (120 h treatment), delayed-death screen and dose-response; assay type: cell-based, Plasmodium falciparum
[3] = test system: T. gondii RH strain (RH-Tub-eYFP) tachyzoites; experiment: microbe, parasite or virus in culture; assay type: cell-based, Toxoplasma gondii; details: 72 h; for percent parasite growth at 2 µg/mL: Toxoplasma gondii
[4] = Plasmodium falciparum, 3D7, library screen at 2 μg/mL, 72 h, % growth, replicate 1, read-out: Pf_72h_%Growth_Rep1
[5] = Plasmodium falciparum, 3D7, library screen at 2 μg/mL, 72 h, % growth, replicate 2, read-out: Pf_72h_%Growth_Rep2
[6] = Plasmodium falciparum, 3D7, library screen at 2 μg/mL, 120 h, % growth, replicate 1, read-out: Pf_120h_%Growth_Rep1
[7] = Plasmodium falciparum, 3D7, library screen at 2 μg/mL, 120 h, % growth, replicate 2, read-out: Pf_120h_%Growth_Rep2
[8] = Plasmodium falciparum, 3D7, P. falciparum, 72 h, screen at 2 μg/mL, replicate 1, read-out: Pf_72h_%Growth_Rep1
[9] = Plasmodium falciparum, 3D7, P. falciparum, 72 h, screen at 2 μg/mL, replicate 2, read-out: Pf_72h_%Growth_Rep2
[10] = Plasmodium falciparum, 3D7, P. falciparum, 120 h, screen at 2 μg/mL, replicate 1, read-out: Pf_120h_%Growth_Rep1
[11] = Plasmodium falciparum, 3D7, P. falciparum, 120 h, screen at 2 μg/mL, replicate 2, read-out: Pf_120h_%Growth_Rep2
[12] = T. gondii, screen at 2 μg/mL, replicate 1, read-out: Tg_72h_%Growth_Rep1
[13] = T. gondii, screen at 2 μg/mL, replicate 2, read-out: Tg_72h_%Growth_Rep2

`CN(C)[C@H]1C(O)=C(C(N)=O)C(=O)[C@@]2(O)C(O)=C3C(=O)c4c(O)cccc4[C@@](C)(O)[C@H]3C[C@@H]12` [Epitetracycline hydrochloride] showed an activity at 2 µg/mL ([1]; Plasmodium falciparum, 3D7; P. falciparum, 2 μg/mL, 72 h; read-out: 1) Growth (%) at 72 h) of 57.7%, an activity at 2 µg/mL [1, 4] of 65.2% and an activity at 2 µg/mL [1, 5] of 50.1%. The “3) Fold change (72 h/120 h)” value [2] was 3.9, the activity at 2 µg/mL ([2]; Plasmodium falciparum, 3D7; P. falciparum, 2 μg/mL, 120 h; read-out: 2) Growth (%) at 120 h) was 14.7% and the activity at 2 µg/mL [2, 6] was 18%. The activity at 2 µg/mL [2, 7] was 11.5%, the percent parasite growth at 2 µg/mL ([3]; read-out: Tg_72h_%Growth_Rep1) was 125% and the percent parasite growth at 2 µg/mL ([3]; read-out: Tg_72h_%Growth_Rep2) was 100%.
Work on `COC(=O)C1(O)CC2OC1(C)n1c3ccccc3c3c4c(c5c6ccccc6n2c5c31)CNC4=O` (stereo not drawn) [BIA-K1225] yielded a Pf_72h_%Growth_Rep1 ([1]; P. falciparum 3D7, 72 h, library screen at 2 μg/mL, % growth, replicate 1) of 4.93%, a Pf_72h_%Growth_Rep2 ([1]; P. falciparum 3D7, 72 h, library screen at 2 μg/mL, % growth, replicate 2) of 0.48% and a Pf_120h_%Growth_Rep1 ([2]; P. falciparum 3D7, 120 h, library screen at 2 μg/mL, % growth, replicate 1) of 29.46%. The Pf_120h_%Growth_Rep2 ([2]; P. falciparum 3D7, 120 h, library screen at 2 μg/mL, % growth, replicate 2) was 12.07%, the Tg_72h_%Growth_Rep1 ([3]; T. gondii RH, library screen at 2 μg/mL, % growth, replicate 1) was -1.01% and the Tg_72h_%Growth_Rep2 ([3]; T. gondii RH, library screen at 2 μg/mL, % growth, replicate 2) was 0.85%.
In the case of `O=c1cc([O-])c1=O.[Na+]` [BIA-M1269], the Pf_72h_%Growth_Rep1 ([1]; P. falciparum 3D7, 72 h, parasite screen at 2 μg/mL, % growth, replicate 1) is reported as 85.51%, the Pf_72h_%Growth_Rep2 ([1]; P. falciparum 3D7, 72 h, parasite screen at 2 μg/mL, % growth, replicate 2) is reported as 86.48% and the Pf_120h_%Growth_Rep1 ([2]; P. falciparum 3D7, 120 h, parasite screen at 2 μg/mL, % growth, replicate 1) is reported as 98.81%. It also gave a Pf_120h_%Growth_Rep2 ([2]; P. falciparum 3D7, 120 h, parasite screen at 2 μg/mL, % growth, replicate 2) of 138.01%, a Tg_72h_%Growth_Rep1 ([3]; T. gondii, parasite screen at 2 μg/mL, % growth, replicate 1) of 105.46% and a Tg_72h_%Growth_Rep2 ([3]; T. gondii, parasite screen at 2 μg/mL, % growth, replicate 2) of 100.53%.
With `C=C1NC(=O)[C@H](C(C)C)NC1=O` [Cyclo(delta-Ala-L-Val)] the Pf_72h_%Growth_Rep1 ([1]; P. falciparum, 72 h, screen at 2 μg/mL, replicate 1) was 78.49%, the Pf_72h_%Growth_Rep2 ([1]; P. falciparum, 72 h, screen at 2 μg/mL, replicate 2) was 81.94% and the Pf_120h_%Growth_Rep1 ([2]; P. falciparum, 120 h, screen at 2 μg/mL, replicate 1) was 80.27%. For the same molecule, the Pf_120h_%Growth_Rep2 ([2]; P. falciparum, 120 h, screen at 2 μg/mL, replicate 2) was 78.77%, the Tg_72h_%Growth_Rep1 ([3]; T. gondii, screen at 2 μg/mL, replicate 1) was 112.17% and the Tg_72h_%Growth_Rep2 ([3]; T. gondii, screen at 2 μg/mL, replicate 2) was 87.98%.
In the case of `COc1c(OC/C=C(\C)CCC=C(C)C)ccc2ccc(=O)oc12` [Collinin], the activity at 2 µg/mL [1, 8] is reported as 69.5%, the activity at 2 µg/mL [1, 9] is reported as 86.1% and the activity at 2 µg/mL [2, 10] is reported as 60.9%. The activity at 2 µg/mL [2, 11] was 78%, the percent parasite growth at 2 µg/mL [3, 12] was 77.5% and the percent parasite growth at 2 µg/mL [3, 13] was 110%.
`COC(=O)C1=C2Nc3ccccc3[C@@]23CCN2C[C@]4(C[C@@H]5C[C@]67CCC[C@H]6CCN6CC[C@@]8(c9cccc(OC)c9N(C4)[C@@]58O)[C@@H]67)[C@@H]4OCC[C@]4(C1)[C@H]23` [Vobtusine] was tested, and the activity at 2 µg/mL [1, 8] was 81.5%, the activity at 2 µg/mL [1, 9] was 87% and the activity at 2 µg/mL [2, 10] was 166%. The activity at 2 µg/mL [2, 11] was 96.3%, the percent parasite growth at 2 µg/mL [3, 12] was 86.1% and the percent parasite growth at 2 µg/mL [3, 13] was 105%.
Work on `CO/C1=C\C(C)=C\[C@@H](C)[C@@H](O)[C@@H](C)C/C(C)=C/C=C/[C@H](OC)[C@@H]([C@@H](C)[C@@H](O)[C@H](C)[C@@]2(O)C[C@@H](O)[C@H](C)[C@@H](C(C)C)O2)OC1=O` [Bafilomycin A1] yielded an activity at 2 µg/mL [1, 4] of 3.38%, an activity at 2 µg/mL [1, 5] of 2.45% and an activity at 2 µg/mL [2, 6] of 5.49%. The activity at 2 µg/mL [2, 7] was 9.47%, the percent parasite growth at 2 µg/mL ([3]; library screen at 2 μg/mL, % growth, replicate 1, read-out: Tg_72h_%Growth_Rep1) was -1.58% and the percent parasite growth at 2 µg/mL ([3]; library screen at 2 μg/mL, % growth, replicate 2, read-out: Tg_72h_%Growth_Rep2) was 0.71%.
`CC[C@H]1OC(=O)[C@H](C)[C@@H](O[C@H]2C[C@@](C)(OC)[C@@H](O)[C@H](C)O2)[C@H](C)[C@@H](O[C@@H]2O[C@H](C)C[C@H](N(C)C)[C@H]2O)[C@](C)(O)C[C@@H](C)C(=NO)[C@H](C)[C@@H](O)[C@]1(C)O` [Erythromycin A oxime] showed a Pf_72h_%Growth_Rep1 ([1]; library screen at 2 μg/mL, 72 h, % growth, replicate 1) of 85.19%, a Pf_72h_%Growth_Rep2 ([1]; library screen at 2 μg/mL, 72 h, % growth, replicate 2) of 75.74% and a Pf_120h_%Growth_Rep1 ([2]; library screen at 2 μg/mL, 120 h, % growth, replicate 1) of 78.37%. It also gave a Pf_120h_%Growth_Rep2 ([2]; library screen at 2 μg/mL, 120 h, % growth, replicate 2) of 65.13%, a Tg_72h_%Growth_Rep1 ([3]; library screen at 2 μg/mL, % growth, replicate 1) of 42.42% and a Tg_72h_%Growth_Rep2 ([3]; library screen at 2 μg/mL, % growth, replicate 2) of 49.55%.
`CC(C)C[C@@H]1NC(=O)[C@H](C(C)C)NC(=O)[C@H](C(C)C)OC(=O)[C@@H](CC(C)C)N(C)C(=O)[C@@H](C(C)C)NC(=O)[C@H](C(C)C)OC1=O` [Sporidesmolide I] (cyclo([Hiv]VL[Hiv][dV][dNMeL])) gave a Pf_72h_%Growth_Rep1 ([1]; P. falciparum, 72 h, parasite screen 2 μg/mL, % growth, replicate 1) of 86.99%, a Pf_72h_%Growth_Rep2 ([1]; P. falciparum, 72 h, parasite screen 2 μg/mL, % growth, replicate 2) of 89.18% and a Pf_120h_%Growth_Rep1 ([2]; P. falciparum, 120 h, parasite screen 2 μg/mL, % growth, replicate 1) of 103.89%. The Pf_120h_%Growth_Rep2 ([2]; P. falciparum, 120 h, parasite screen 2 μg/mL, % growth, replicate 2) was 100.78%, the Tg_72h_%Growth_Rep1 ([3]; T. gondii, parasite screen 2 μg/mL, % growth, replicate 1) was 147.37% and the Tg_72h_%Growth_Rep2 ([3]; T. gondii, parasite screen 2 μg/mL, % growth, replicate 2) was 92.68%.
